Key:
ERK1/2 in MBA-15 cells [1] = test: Estrogen signaling, ERK1/2 pathway: Western blot for pERK1/2 on whole cell lysates; type: cell-based; conditions: FIG. 16A; for 17βE2-induced increase of pERK1/2 after pretreatment: then 10^−8M 17β-estrogen five minutes
Description: Western blot analysis and Immunoprecipitation: Cells were harvested from cultures, washed twice with ice-cold PBS and collected in presence of protease inhibitors (Phenylmethylsulfonyl fluoride PMSF, 1 mM; 1-Chloro-3-tosylamido-4-phenyl-2-butanone, TPCK, 10 μg/ml; Aprotinin, 10 μg/ml (Sigma, USA) and phosphatase inhibitor cocktails I and II (Sigma, USA). Samples were spun down at 1500 rpm for 4 minutes and pellets were reconstituted in lyses buffer (50 mM Tris pH 7.5, 150 mM NaCl, 1% NP-40, and protease and phosphatase inhibitors, as above). Following a 20 minute incubation at 4° C., samples were centrifuged at 16,000 g for 5 minutes.
(§1) For Western blot, the membranes were blocked with 5% BSA in TBST (50 mM Tris, pH-7.5, 150 mM NaCl, 0.1% Tween-20, Sigma, USA) for 1 hour at RT or overnight and than incubated with anti-MS-KIF18A. The membranes were washed with TBST and incubated with goat anti-rabbit or goat anti-mouse conjugated to biotin (Dako, Denmark) for 40 minutes at RT and Extravidin-Peroxidase (Sigma, USA) for detection with chemiluminescent substrate (Pierce, USA).
(§2) Estrogen signaling, ERK1/2 pathway: MBA-15 cells were maintained in medium supplemented with 3% charcoal striped FCS for 48 hours prior to the start of the experiment. On the day of the experiment, the cells were pretreated with 25 μM MAPK inhibitor, PD98059 (Calbiochem, USA) and an estrogen antagonist ICI 182,780 10^−6M (Tocris, USA) for 45 minutes. 10^−8M 17β-estrogen (Sigma, USA) was added for five minutes. Cell lysates were used for immunoprecipitation and analyzed by Western blot.
(§3) Immunoprecipitation, Western blot, SDS-PADE gel: All experiments were performed as described in Example 1. Primary antibodies included anti-MS-KIF18A, anti-ER antibodies (Upstate Biotechnologies, USA) or SRA-1010 (Stressgen, Canada), anti-ERK1/2, pERK1/2 (Sigma, USA) or anti-His-tag (Santa Cruz Biotechnologies, USA). For detection a secondary antibody conjugated to biotin-extravidine-peroxidase and chemiluminescent substrate was used (Pierce, USA).

ERK1/2 in MBA-15 cells [2] = test: pERK1/2 in anti-MS-KIF18A immunoprecipitates (MS-KIF18A-ERα complex), Western blot; type: cell-based; conditions: for ERK activation in anti-MS-KIF18A immunoprecipitate after pretreatment: then 17β-estrogen
Description: (§4) For immunoprecipitation (IP), anti-MS-KIF18A and protein-A sepharose beads (Sigma, USA) were added to lysates and samples were incubated overnight at 4° C. Immunocomplexes were precipitated at 16,000 g for 1 minute and washed 4 times with lyses buffer. The washed beads were re-suspended in Lamelli sample buffer and boiled for 3 minutes. The proteins were separated on 8% SDS-PAGE gel for 2 hours and transferred to nitrocellulose for 1.5 hours.
as §1, §2, §3

ERα 66 kDa = biological target: T1, ERα 66 kDa (Homo sapiens, UniProt P03372); test: Co-immunoprecipitation of co-transfected His-MS-KIF18A and ERα 66 kDa in COS-7 cells; type: binding; conditions: COS-7 cells co-transfected with His-MS-KIF18A and ERα 66 kDa, FIGS. 14A-B
T1 construct: expressed in transfected cells; host or cells: COS-7
T1 sequence (P03372 1-595): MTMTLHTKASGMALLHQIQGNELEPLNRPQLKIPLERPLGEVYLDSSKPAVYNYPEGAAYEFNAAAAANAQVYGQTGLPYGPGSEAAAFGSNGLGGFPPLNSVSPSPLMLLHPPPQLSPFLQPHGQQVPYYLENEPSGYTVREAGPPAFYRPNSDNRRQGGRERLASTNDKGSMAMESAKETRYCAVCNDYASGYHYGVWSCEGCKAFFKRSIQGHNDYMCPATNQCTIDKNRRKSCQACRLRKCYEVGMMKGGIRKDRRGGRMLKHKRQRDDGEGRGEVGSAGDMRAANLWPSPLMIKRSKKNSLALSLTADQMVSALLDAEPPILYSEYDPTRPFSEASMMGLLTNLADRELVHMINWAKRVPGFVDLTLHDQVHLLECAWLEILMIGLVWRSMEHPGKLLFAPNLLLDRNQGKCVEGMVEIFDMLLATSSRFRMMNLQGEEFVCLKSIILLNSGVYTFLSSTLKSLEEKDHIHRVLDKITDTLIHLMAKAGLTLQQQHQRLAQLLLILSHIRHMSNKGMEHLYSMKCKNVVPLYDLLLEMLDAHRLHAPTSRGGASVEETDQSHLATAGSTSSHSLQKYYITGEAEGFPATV
T1 sequence (Q8NI77 1-898 I735V partner): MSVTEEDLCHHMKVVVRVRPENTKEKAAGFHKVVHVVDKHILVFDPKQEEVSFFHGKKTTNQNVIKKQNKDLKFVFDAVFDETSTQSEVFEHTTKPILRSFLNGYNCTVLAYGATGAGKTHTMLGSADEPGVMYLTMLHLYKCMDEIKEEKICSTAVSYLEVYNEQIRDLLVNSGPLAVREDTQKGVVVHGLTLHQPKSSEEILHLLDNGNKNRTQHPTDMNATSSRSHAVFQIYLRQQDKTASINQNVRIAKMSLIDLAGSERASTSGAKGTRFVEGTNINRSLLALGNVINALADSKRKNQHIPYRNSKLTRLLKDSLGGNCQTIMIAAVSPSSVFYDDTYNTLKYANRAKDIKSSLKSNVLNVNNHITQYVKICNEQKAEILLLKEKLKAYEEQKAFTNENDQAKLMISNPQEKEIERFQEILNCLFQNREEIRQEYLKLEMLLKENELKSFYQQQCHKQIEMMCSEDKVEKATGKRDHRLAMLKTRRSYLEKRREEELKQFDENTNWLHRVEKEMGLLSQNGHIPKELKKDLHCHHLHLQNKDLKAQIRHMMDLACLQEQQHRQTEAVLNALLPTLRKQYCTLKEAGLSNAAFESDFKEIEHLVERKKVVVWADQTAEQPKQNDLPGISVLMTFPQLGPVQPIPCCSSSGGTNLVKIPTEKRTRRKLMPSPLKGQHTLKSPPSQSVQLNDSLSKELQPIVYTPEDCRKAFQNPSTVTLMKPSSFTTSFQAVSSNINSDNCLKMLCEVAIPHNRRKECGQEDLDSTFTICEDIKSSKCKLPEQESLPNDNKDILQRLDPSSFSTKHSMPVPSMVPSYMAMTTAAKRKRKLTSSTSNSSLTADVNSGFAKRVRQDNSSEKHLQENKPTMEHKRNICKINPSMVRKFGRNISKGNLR
Description: as §4, §1
as §3, with “(Pierce, USA). […]” for “(Pierce, USA).”

ERα = test: Co-immunoprecipitation of endogenous MS-KIF18A and ERα in MBA-15 cells; type: binding; conditions: MBA-15 cell lysates, antibodies directed against MS-KIF18A, FIG. 15
Description: as §4, §1, §3

C[C@]12CC[C@@H]3c4ccc(O)cc4C[C@@H](CCCCCCCCC[S+]([O-])CCCC(F)(F)C(F)(F)F)[C@H]3[C@@H]1CC[C@@H]2O (some centres unmarked) [ICI 182,780]
17βE2-induced increase of pERK1/2 after pretreatment (ERK1/2 in MBA-15 cells [1]; pretreated with ICI 182,780 10^−6M for 45 minutes): inhibited
ERK activation in anti-MS-KIF18A immunoprecipitate after pretreatment (ERK1/2 in MBA-15 cells [2]; pretreated with ICI 182,780 10^−6M 45 minutes, FIG. 16D lane 3, FIG. 16E): reduced ERK activation

COc1cccc(-c2cc(=O)c3ccccc3o2)c1N [PD98059]
17βE2-induced increase of pERK1/2 after pretreatment (ERK1/2 in MBA-15 cells [1]; pretreated with 25 μM PD98059 for 45 minutes): inhibited
ERK activation in anti-MS-KIF18A immunoprecipitate after pretreatment (ERK1/2 in MBA-15 cells [2]; pretreated with 25 μM PD98059 45 minutes, FIG. 16D lane 2, FIG. 16E): reduced ERK activation

17β-estrogen [17βE2]
pERK1/2 following 17βE2 stimulation (ERK1/2 in MBA-15 cells [1]; 10^−8M 17β-estrogen for five minutes): increase
activated ERK in anti-MS-KIF18A immunoprecipitate following estrogen treatment (ERK1/2 in MBA-15 cells [2]; 10^−8M 17β-estrogen five minutes, FIG. 16D lane 4): increase in activated ERK

B1: His-MS-KIF18A: His-tagged MS-KIF18A expressed from pcDNA3.1-His-C-MS-KIF18A in COS-7 cells (protein)
chain: MSVTEEDLCHHMKVVVRVRPENTKEKAAGFHKVVHVVDKHILVFDPKQEEVSFFHGKKTTNQNVIKKQNKDLKFVFDAVFDETSTQSEVFEHTTKPILRSFLNGYNCTVLAYGATGAGKTHTMLGSADEPGVMYLTMLHLYKCMDEIKEEKICSTAVSYLEVYNEQIRDLLVNSGPLAVREDTQKGVVVHGLTLHQPKSSEEILHLLDNGNKNRTQHPTDMNATSSRSHAVFQIYLRQQDKTASINQNVRIAKMSLIDLAGSERASTSGAKGTRFVEGTNINRSLLALGNVINALADSKRKNQHIPYRNSKLTRLLKDSLGGNCQTIMIAAVSPSSVFYDDTYNTLKYANRAKDIKSSLKSNVLNVNNHITQYVKICNEQKAEILLLKEKLKAYEEQKAFTNENDQAKLMISNPQEKEIERFQEILNCLFQNREEIRQEYLKLEMLLKENELKSFYQQQCHKQIEMMCSEDKVEKATGKRDHRLAMLKTRRSYLEKRREEELKQFDENTNWLHRVEKEMGLLSQNGHIPKELKKDLHCHHLHLQNKDLKAQIRHMMDLACLQEQQHRQTEAVLNALLPTLRKQYCTLKEAGLSNAAFESDFKEIEHLVERKKVVVWADQTAEQPKQNDLPGISVLMTFPQLGPVQPIPCCSSSGGTNLVKIPTEKRTRRKLMPSPLKGQHTLKSPPSQSVQLNDSLSKELQPIVYTPEDCRKAFQNPSTVTLMKPSSFTTSFQAVSSNINSDNCLKMLCEVAIPHNRRKECGQEDLDSTFTICEDIKSSKCKLPEQESLPNDNKDILQRLDPSSFSTKHSMPVPSMVPSYMAMTTAAKRKRKLTSSTSNSSLTADVNSGFAKRVRQDNSSEKHLQENKPTMEHKRNICKINPSMVRKFGRNISKGNLR
modifications: left off: small tags and cut ends
notes: His-tagged MS-KIF18A expressed from pcDNA3.1-His-C-MS-KIF18A in COS-7 cells
interaction with ERα 66 kDa (pull-down by anti-MS-KIF18A and anti-His antibodies) (ERα 66 kDa): interaction

B2: MS-KIF18A: novel kinesin KIF18A polypeptide of 898 amino acids expressed in mesenchymal stem cells, SEQ ID NO: 2 (protein, listed as Homo sapiens)
chain: MSVTEEDLCHHMKVVVRVRPENTKEKAAGFHKVVHVVDKHILVFDPKQEEVSFFHGKKTTNQNVIKKQNKDLKFVFDAVFDETSTQSEVFEHTTKPILRSFLNGYNCTVLAYGATGAGKTHTMLGSADEPGVMYLTMLHLYKCMDEIKEEKICSTAVSYLEVYNEQIRDLLVNSGPLAVREDTQKGVVVHGLTLHQPKSSEEILHLLDNGNKNRTQHPTDMNATSSRSHAVFQIYLRQQDKTASINQNVRIAKMSLIDLAGSERASTSGAKGTRFVEGTNINRSLLALGNVINALADSKRKNQHIPYRNSKLTRLLKDSLGGNCQTIMIAAVSPSSVFYDDTYNTLKYANRAKDIKSSLKSNVLNVNNHITQYVKICNEQKAEILLLKEKLKAYEEQKAFTNENDQAKLMISNPQEKEIERFQEILNCLFQNREEIRQEYLKLEMLLKENELKSFYQQQCHKQIEMMCSEDKVEKATGKRDHRLAMLKTRRSYLEKRREEELKQFDENTNWLHRVEKEMGLLSQNGHIPKELKKDLHCHHLHLQNKDLKAQIRHMMDLACLQEQQHRQTEAVLNALLPTLRKQYCTLKEAGLSNAAFESDFKEIEHLVERKKVVVWADQTAEQPKQNDLPGISVLMTFPQLGPVQPIPCCSSSGGTNLVKIPTEKRTRRKLMPSPLKGQHTLKSPPSQSVQLNDSLSKELQPIVYTPEDCRKAFQNPSTVTLMKPSSFTTSFQAVSSNINSDNCLKMLCEVAIPHNRRKECGQEDLDSTFTICEDIKSSKCKLPEQESLPNDNKDILQRLDPSSFSTKHSMPVPSMVPSYMAMTTAAKRKRKLTSSTSNSSLTADVNSGFAKRVRQDNSSEKHLQENKPTMEHKRNICKINPSMVRKFGRNISKGNLR
association with endogenous ERα (co-immunoprecipitation) (ERα): confirmed the association

Reference: patent US7829296B2, “Kinesin polypeptides, polynucleotides encoding same and compositions and methods of using same” (Ramot at Tel-Aviv University Ltd., priority 2005, dated 2010)
